According to patent US9617197B2, “Compositions and methods for treating inflammatory diseases” (University of Virginia Patent Foundation, priority 2010, dated 2017):

Tests used:
[1] = molecular target: T1, human recombinant LTA4H enzyme (LTA4H AP activity) (Homo sapiens, UniProt P09960); details: Jiang et al. (2008); cited from earlier work
T1 sequence (P09960 1-611): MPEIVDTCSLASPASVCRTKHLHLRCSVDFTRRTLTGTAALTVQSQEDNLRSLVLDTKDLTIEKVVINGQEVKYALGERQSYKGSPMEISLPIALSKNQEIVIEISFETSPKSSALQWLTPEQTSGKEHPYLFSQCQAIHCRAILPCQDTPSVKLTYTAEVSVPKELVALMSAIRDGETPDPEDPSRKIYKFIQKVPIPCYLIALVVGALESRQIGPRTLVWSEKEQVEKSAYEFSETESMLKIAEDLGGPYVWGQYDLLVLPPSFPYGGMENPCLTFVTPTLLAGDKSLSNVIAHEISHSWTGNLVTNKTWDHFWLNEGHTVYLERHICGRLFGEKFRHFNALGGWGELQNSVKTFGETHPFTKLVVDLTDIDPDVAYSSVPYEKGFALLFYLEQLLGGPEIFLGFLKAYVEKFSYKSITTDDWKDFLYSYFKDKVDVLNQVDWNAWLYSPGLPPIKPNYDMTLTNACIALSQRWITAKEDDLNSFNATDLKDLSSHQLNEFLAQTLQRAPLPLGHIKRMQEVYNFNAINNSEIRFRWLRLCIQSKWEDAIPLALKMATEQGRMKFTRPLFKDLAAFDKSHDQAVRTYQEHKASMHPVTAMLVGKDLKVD

[2] = Toxicity in murine pre-clinical models; format: in vivo
[3] = Chemical stability in pH 6.7 buffer; format: physicochemical
[4] = molecular target: T1, human recombinant LTA4H enzyme (LTA4H AP activity); experiment: In vitro aminopeptidase activity assay; format: biochemical; details: recombinant LTA4H + Ala-pNA; 500 μM, 10 μM, 5 μM, 100 nM; FIG. 2
Method: FIG. 2. In vitro aminopeptidase activity assay. The peptidase activity of compounds was determined following the method of Jiang and co-workers (2008). […] No Enzyme=buffer. Enzy=buffer+recombinant LTA4H. 500 μM, 10 μM, 5 μM, and 100 nM=buffer+recombinant LTA4H+Ala-pNA+MDM.
FIG. 7. Biological activities of 2-hydroxypropyl-β-cyclodextrin encapsulated 4-methoxydiphenylmethane (“CDX-MDM”). […] No Enzyme=buffer. 0 M=buffer+recombinant LTA4H+Ala-pNA+no MDM. 500 μM, 10 μM, 5 μM, and 100 nM=buffer+recombinant LTA4H+Ala-pNA+MDM (500 μM, 10 μM, 5 μM, or100 nM).
(§1) In order to establish the biological roles of LTA4H AP activity in the pathogenesis of pulmonary emphysema, wild type mice were exposed to porcine elastase via the intra-nasal route and then treated with one LTA4H AP activity augmentor (compound 66, MDM), a LTA4H AP activity inhibitor (compound 67, PDM), or vehicle (peanut oil). Synthesis of MDM was accomplished by treatment of 4-benzyl phenol in dimethylformamide solvent with potassium hydroxide followed by methyl iodide (FIG. 1). Synthesis of compound PDM was accomplished by treatment of 4-benzyl phenol in dimethylformamide solvent with potassium hydroxide followed by butyl iodide (FIG. 1). The peptidase activity of the compound was determined following the method of Jiang and co-workers (2008).

[5] = tested on: elastase induced murine pulmonary emphysema; experiment: Elastase-induced murine pulmonary emphysema model; format: in vivo, mice; details: for pre mortem lung compliance (Flexivent): 4 weeks after intra-nasal elastase, drug intra-peritoneal in peanut oil, FIG. 3; for severity of pulmonary emphysema: vs vehicle treated control animals
Method: To investigate the role that LTA4H plays in the pathogenesis of human diseases, murine models of elastase-induced pulmonary emphysema (Example 1) and LPS-induced acute lung injury (Example 3) were tested. In order to establish the elastase-dose dependent severity of murine pulmonary emphysema, increasing doses of porcine elastase were instilled into murine lungs of 129J background via the intra-nasal route. Four weeks after elastase was instilled, mouse lungs were harvested en block, inflated with 1% low melting point agarose gel (LMPA) at 25 cm melted 1% LMPA pressure. Lungs were then fixed overnight in formaldehyde. […] This confirmed that intra-nasal elastase administration was able to induce pulmonary emphysema in a dose-dependent manner.
as §1
Elastase (0.75 μg elastase per gm mouse weight) was instilled via the intra-nasal route. After 4 weeks, mice were sedated, intubated, and ventilated with Sireq Flexivent to measure lung compliance pre mortem. It was understood that lungs with more severe emphysema would have lost more elasticity, and thus, their lung compliance would be greater when measured by a small animal ventilator (FIG. 3). Once lung compliance was measured, mice were euthanized. Lungs were harvested en block without damaging outer coverings. Once harvested, lungs were inflated with 1% low melting point agarose gel (LMPA) at 25 cm melted 1% LMPA gel pressure. Once inflated, the total lung volumes were measured by volume displacement technique (FIG. 4). It was understood that lungs with more severe emphysema would have lost more elasticity, and thus their lung volume would be greater after being inflated with a uniform pressure. After the total lung volume measurement, lungs were fixed in para-formaldehyde overnight. On the following day, whole lungs were photographed (FIG. 5). Lungs with more severe emphysema would have lost more elasticity, and thus their lungs would be larger after being fixed with para-formaldehyde. The lungs were then paraffin embedded, paraffin sections were H&E stained (FIG. 6A), and morphometry was performed by using NIH ImagePro software and custom written macro string (Shim et al., 2006; Shim et al., 2010; Zheng et al., 2000; Zu et al., 1999). Alveolar intercepts were calculated and averaged from at least 8 animals in each group to yield chord length of each group (FIG. 6B). It was understood that alveoli from lungs with more severe emphysema would be larger after losing more elasticity and thus their chord length of the alveoli would be longer.

[6] = Bioavailability in mice; format: in vivo
[7] = Encapsulation and equilibrium solubility test (HPLC); format: physicochemical
Method: To 5.3 mg (1.0 equivalent) of MDM was added 160.0 mg (4.0 equivalents) of CDX followed by 4.8 mL of water. […] The homogeneity of the solution was analyzed by HPLC.
Solubility measurement. […] Method: isocratic 80:20 acetonitrile-water at 1.0 mL/min, injection volume=5 μL, monitoring at λ=250 nm.
The method was carried out above with phosphate buffer saline (PBS, Ampresco, 20× concentrate, pH7.5; 500 μL of PBS concentrate was added to 9500 μL of water). To 6.0 mg (1.0 equivalents) of MDM was added 180.0 mg (4.0 equivalents) of CDX followed by 5.8 mL of water. […] The homogeneity of the solution was analyzed by HPLC.
The method was carried out as above. To 2.4 mg (1.0 equivalents) of MDM was added 0.035 g (2.0 equivalents) of CDX followed by 2.4 mL of PBS solution. […] The homogeneity of the solution was analyzed by HPLC.

Compound | LTA4H AP activity in vitro [1] | mortality [2] | chemical stability in pH 6.7 buffer [3] | LTA4H AP activity [4] | pre mortem lung compliance (Flexivent) [5] | post mortem total lung volume (volume displacement) ([5]; vs PDM or vehicle control, FIG. 4) | gross size of inflated whole lungs ([5]; vs PDM or vehicle control, FIG. 5) | lung histology chord length ([5]; vs drug 67 or vehicle (peanut oil), FIG. 6) | severity of pulmonary emphysema [5] | bioavailability ([6]; encapsulated formulation with 2-hydroxypropyl-β-cyclodextrin, intra-nasal administration to mice) | bioavailability ([6]; intra-peritoneal injection of mice, MDM combined with peanut oil) | concentration in solution by standard curve ([7]; 1:2 MDM:CDX in PBS, calculated 5.04 mM) | fraction of the MDM in the homogeneous solution at equilibrium ([7]; 1:2 ratio of MDM:CDX in PBS) | solubility with 2 equivalents of CDX ([7]; PBS solution)
COc1ccc(Oc2ccccc2)cc1 [1-methoxy-4-phenoxybenzene] | upregulates | greater than 85% | chemical instability | – | – | – | – | – | – | – | – | – | – | –
COc1ccc(Cc2ccccc2)cc1 [MDM, 4-methoxydiphenylmethane] | – | – | stable | augment | significantly lower lung compliance | much less emphysematous | much smaller | shorter | significantly less severe | bioavailable | bioavailable | 2950 µM | 59% | 590 µg/mL
CCCCCOc1ccc(Cc2ccccc2)cc1 [PDM, 4-pentoxydiphenylmethane] | – | – | – | decrease | high lung compliance similar to lungs treated with vehicle | – | – | – | deleterious outcomes | – | – | – | – | –
